Measurements from patent publication US20190137505A1 (THE ARIZONA BOARD OF REGENTS ON BEHALF OF THE UNIVERSITY OF …, priority 2015, published 2019).

Experiment: LC-MS/MS MRM quantitation of metformin-MG imidazolinone and metformin in human urine
Type: in vivo
Procedure: An Agilent (Palo Alto, Calif.) 1260 liquid chromatograph was utilized for achieving gradient separation using an Agilent ZORBAX Hilic Plus (2.1×50 mm) column with a 1.8 μm packing size held at 30° C. throughout the separation. A 5 μL injection of urine diluted 1:200 in Milli-Q water and snap filtered ([…] eXtreme® Filter Vial 0.2 um PVDF; Thomson, Oceanside, Calif.) was used for all samples. A binary gradient consisting of 15 mM ammonium acetate in water (A) and acetonitrile (B) at a flow rate of 300 μL/min was used. […] After this, a linear gradient was maintained to achieve 35% B at 9 min which was held for another minute. At 10 min, another linear change was applied to get to the initial condition of 95% B at 11 min. A post-time of three min was used to re-equilibriate the column before the next analysis. The total analysis time was 14 min per sample. Mass spectrometry was performed using an Agilent 6490 triple-quadrupole mass spectrometer with an electrospray ionization (ESI) source. […] After this was determined, the mass spectrometer was operated in product ion scan mode and the most abundant product ions were selected. […] Once the product ions were determined, the collision energy (CE) and cell accelerator voltage (CAV) were optimized for each transition. […]

IMZ in urine of MF-treated T2DM patients (all MF-treated T2DM patients): detected | Levels of the MF-MG adduct detectable in urine (human diabetic subjects on MF treatment): up to 4.32 μM/specific gravity
Structure (SMILES): CC1NC(/N=C(\N)N(C)C)=NC1=O (centres unmarked) [IMZ, (E)-1,1-dimethyl-2-(5-methyl-4-oxo-4,5-dihydro-1H-imidazol-2-yl)guanidine]
